In patent US7094557B2, “2-Methyl-3-butenyl-1-pyrophosphoric acid salt and agent for treating lymphocytes” (Chugai Seiyaku Kabushiki Kaisha, priority 1999, dated 2006):
Read-outs that look alike come from different tables or passages of the source.

How the values were obtained:
[1] = test system: Vγ2Vδ2 type T cells; details: prior art; cited from earlier work
[2] = test system: human Vγ2Vδ2 type T cells; experiment: Proliferation of Vγ2Vδ2 type T cells in treated peripheral blood mononuclear cells (ratio in CD3 cells); type: cell-based; details: day 11, peripheral blood mononuclear cells of volunteer G
Description: After 12 days, the cells were collected.
10 ml of the peripheral blood collected from a healthy volunteer G was subjected to Ficoll-Paque specific gravity centrifugation to purify the peripheral blood mononuclear cells and they were suspended in a Yssel's medium. The cells were apportioned into a 24-hole plate so that the number of the cells becomes a concentration of 2.5 million/1.5 ml/hole, and then, according to the above-mentioned method, treatments 1 to 5 were conducted as shown in Table 1. […] On the day 11 after conducting the treatment, a ratio of Vγ2Vδ2 type T cells in existing CD3 cells was calculated.

[3] = test system: human Vγ2Vδ2 type T cell clones
[4] = for Stable preservation time in solution: neutral aqueous solution
[5] = test system: normal peripheral blood cells of A; details: treated peripheral bloods of A (after freezing and thawing) and F on normal peripheral blood cells of A
Description: In Test examples, treatment of the peripheral blood by 2-methyl-3-butenyl-1-pyrophosphoric acid or by a salt thereof was conducted as follows unless otherwise specified. Lymphocytes contained in the peripheral blood derived from healthy volunteer were treated so that the final concentration of the pyrophosphoric acid compound was 20 μM, and cultured in a Yssel's medium under conditions of temperature at 37° C. and a carbon dioxide concentration of 5%. […] After 12 days, the cells were collected.

| SMILES | Concentration required to activate Vγ2Vδ2 type T cells [1] | Vγ2Vδ2 type T cells/CD3 cells ([2]; 2 μM sodium salt + interleukin-2 10 U/ml) [%] | Vγ2Vδ2 type T cells/CD3 cells ([2]; 20 μM sodium salt + interleukin-2 10 U/ml) [%] | Vγ2Vδ2 type T cells/CD3 cells ([2]; 200 μM sodium salt + interleukin-2 10 U/ml) [%] | Amount in whose presence the human Vγ2Vδ2 type T cells proliferate [3] | Amount that can stimulate the cells ([3]; human Vγ2Vδ2 type T cell clones) | Dissociation of inorganic pyrophosphoric acid ([4]; acidic range of pH 4 or less) | Stable preservation time in solution ([4]; pH 6 to 7, room temperature) | Stable preservation time in solution ([4]; pH 6 to 7, −20° C.) | Cytotoxicity of treated Vγ2Vδ2 type T cells on normal cells [5] |
| --- | --- | --- | --- | --- | --- | --- | --- | --- | --- | --- |
| C=C(C)CCOP(=O)(O)OP(=O)(O)O [isopentenyl pyrophosphoric acid] | several hundreds of μM to several mM |  |  |  |  |  |  |  |  |  |
| CCOP(=O)(O)O [mono ethyl phosphoric acid] | several hundreds of μM to several mM |  |  |  |  |  |  |  |  |  |
| C=CC(C)COP(=O)([O-])OP(=O)([O-])[O-].[Na+].[Na+].[Na+] (centres unmarked) [sodium salt of 2-methyl-3-butenyl-1-pyrophosphoric acid] |  | 58.3 | 85.5 | 94.5 | several hundreds μM | several hundreds nM to several tens μM | observed within a few minutes | more than one week | more than one year | do not attack the normal cells |
